According to PubChem BioAssay (NCI):
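Each compound was tested at five concentrations against cells in 96-well plates for 48 hours. Definition used: TGI = concentration required for complete inhibition of growth.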

Experiments:
Assay in all cases: inhibition of tumour cell growth, NCI panel, 48 h
SNB-19 CNS = system: SNB-19 CNS
SK-MEL-5 melanoma = system: SK-MEL-5 melanoma
KM12 colon = system: KM12 colon
A549 NSCLC = system: A549 NSCLC
M14 melanoma = system: M14 melanoma
NCI-H522 lung = system: NCI-H522 lung
RPMI-8226 leukemia = system: RPMI-8226 leukemia
PC-3 prostate = system: PC-3 prostate
SF-295 CNS = system: SF-295 CNS
U251 CNS = system: U251 CNS
SNB-75 CNS = system: SNB-75 CNS
NCI/ADR-RES ovarian = system: NCI/ADR-RES ovarian
HCT-15 colon = system: HCT-15 colon
COLO 205 colon = system: COLO 205 colon
SF-268 CNS = system: SF-268 CNS
CAKI-1 renal = system: CAKI-1 renal
EKVX NSCLC = system: EKVX NSCLC
NCI-H460 lung = system: NCI-H460 lung
OVCAR-4 ovarian = system: OVCAR-4 ovarian
HOP-62 NSCLC = system: HOP-62 NSCLC
SW-620 colon = system: SW-620 colon
NCI-H23 lung = system: NCI-H23 lung
MDA-N = system: MDA-N
HCC-2998 colon = system: HCC-2998 colon
A498 renal = system: A498 renal
UACC-257 melanoma = system: UACC-257 melanoma
SK-MEL-2 melanoma = system: SK-MEL-2 melanoma
HL-60(TB) leukemia = system: HL-60(TB) leukemia
CCRF-CEM leukemia = system: CCRF-CEM leukemia
MALME-3M melanoma = system: MALME-3M melanoma
HOP-92 NSCLC = system: HOP-92 NSCLC
NCI-H226 lung = system: NCI-H226 lung
HCT-116 colon = system: HCT-116 colon
ACHN renal = system: ACHN renal
SR leukemia = system: SR leukemia
SK-MEL-28 melanoma = system: SK-MEL-28 melanoma
MDA-MB-231 breast = system: MDA-MB-231 breast
OVCAR-3 ovarian = system: OVCAR-3 ovarian
OVCAR-5 ovarian = system: OVCAR-5 ovarian
DU-145 prostate = system: DU-145 prostate
MDA-MB-435 = system: MDA-MB-435
MCF7 breast = system: MCF7 breast
RXF 393 renal = system: RXF 393 renal
T-47D breast = system: T-47D breast
UACC-62 melanoma = system: UACC-62 melanoma
LOX IMVI melanoma = system: LOX IMVI melanoma
K-562 leukemia = system: K-562 leukemia
OVCAR-8 ovarian = system: OVCAR-8 ovarian
HS 578T breast = system: HS 578T breast
SN12C renal = system: SN12C renal
SF-539 CNS = system: SF-539 CNS
TK-10 renal = system: TK-10 renal
SK-OV-3 ovarian = system: SK-OV-3 ovarian
786-0 renal = system: 786-0 renal
BT-549 breast = system: BT-549 breast
IGROV1 ovarian = system: IGROV1 ovarian
MOLT-4 leukemia = system: MOLT-4 leukemia
HT29 colon = system: HT29 colon
UO-31 renal = system: UO-31 renal

Q: What does the source list for `COc1ccc(-c2cc(=O)c3ccc(O)cc3o2)cc1OC`?
A: TGI (SNB-19 CNS): > 100 µM; TGI (SK-MEL-5 melanoma): 41.8 µM; TGI (KM12 colon): > 100 µM; TGI (A549 NSCLC): > 100 µM; TGI (M14 melanoma): > 100 µM; TGI (NCI-H522 lung): > 100 µM; TGI (RPMI-8226 leukemia): > 100 µM; TGI (PC-3 prostate): > 100 µM; TGI (SF-295 CNS): > 100 µM; TGI (U251 CNS): > 100 µM; TGI (SNB-75 CNS): > 100 µM; TGI (NCI/ADR-RES ovarian): > 100 µM; TGI (HCT-15 colon): > 100 µM; TGI (COLO 205 colon): > 100 µM; TGI (SF-268 CNS): > 100 µM; TGI (CAKI-1 renal): > 100 µM; TGI (EKVX NSCLC): > 100 µM; TGI (NCI-H460 lung): > 100 µM; TGI (OVCAR-4 ovarian): > 100 µM; TGI (HOP-62 NSCLC): > 100 µM; TGI (SW-620 colon): > 100 µM; TGI (NCI-H23 lung): > 100 µM; TGI (MDA-N): > 100 µM; TGI (HCC-2998 colon): > 100 µM; TGI (A498 renal): > 100 µM; TGI (UACC-257 melanoma): > 100 µM; TGI (SK-MEL-2 melanoma): > 100 µM; TGI (HL-60(TB) leukemia): > 100 µM; TGI (CCRF-CEM leukemia): > 100 µM; TGI (MALME-3M melanoma): > 100 µM; TGI (HOP-92 NSCLC): > 100 µM; TGI (NCI-H226 lung): > 100 µM; TGI (HCT-116 colon): > 100 µM; TGI (ACHN renal): > 100 µM; TGI (SR leukemia): > 100 µM; TGI (SK-MEL-28 melanoma): > 100 µM; TGI (MDA-MB-231 breast): > 100 µM; TGI (OVCAR-3 ovarian): > 100 µM; TGI (OVCAR-5 ovarian): > 100 µM; TGI (DU-145 prostate): > 100 µM; TGI (MDA-MB-435): > 100 µM; TGI (MCF7 breast): > 100 µM; TGI (RXF 393 renal): 38.6 µM; TGI (T-47D breast): > 100 µM; TGI (UACC-62 melanoma): > 100 µM; TGI (LOX IMVI melanoma): > 100 µM; TGI (K-562 leukemia): > 100 µM; TGI (OVCAR-8 ovarian): > 100 µM; TGI (HS 578T breast): > 100 µM; TGI (SN12C renal): > 100 µM; TGI (SF-539 CNS): > 100 µM; TGI (TK-10 renal): > 100 µM; TGI (SK-OV-3 ovarian): > 100 µM; TGI (786-0 renal): > 100 µM; TGI (BT-549 breast): > 100 µM; TGI (IGROV1 ovarian): > 100 µM; TGI (MOLT-4 leukemia): > 100 µM; TGI (HT29 colon): > 100 µM

Q: Which results are given for `COCc1nc2c(OC)cc(-c3nc4ccc(N5CCN(C)CC5)cc4[nH]3)c(OC)c2[nH]1`?
A: TGI (SNB-19 CNS): > 100 µM; TGI (SK-MEL-5 melanoma): 53.2 µM; TGI (KM12 colon): > 100 µM; TGI (A549 NSCLC): > 100 µM; TGI (M14 melanoma): 31.9 µM; TGI (NCI-H522 lung): > 100 µM; TGI (RPMI-8226 leukemia): > 100 µM; TGI (PC-3 prostate): > 100 µM; TGI (SF-295 CNS): 47.2 µM; TGI (U251 CNS): > 100 µM; TGI (SNB-75 CNS): > 100 µM; TGI (NCI/ADR-RES ovarian): > 100 µM; TGI (HCT-15 colon): > 100 µM; TGI (COLO 205 colon): 77 µM; TGI (UO-31 renal): > 100 µM; TGI (SF-268 CNS): > 100 µM; TGI (CAKI-1 renal): > 100 µM; TGI (EKVX NSCLC): > 100 µM; TGI (NCI-H460 lung): > 100 µM; TGI (OVCAR-4 ovarian): > 100 µM; TGI (HOP-62 NSCLC): > 100 µM; TGI (SW-620 colon): > 100 µM; TGI (NCI-H23 lung): > 100 µM; TGI (MDA-N): > 100 µM; TGI (A498 renal): > 100 µM; TGI (UACC-257 melanoma): 34.6 µM; TGI (SK-MEL-2 melanoma): 76.3 µM; TGI (HL-60(TB) leukemia): > 100 µM; TGI (CCRF-CEM leukemia): > 100 µM; TGI (MALME-3M melanoma): 31.6 µM; TGI (HOP-92 NSCLC): > 100 µM; TGI (NCI-H226 lung): > 100 µM; TGI (HCT-116 colon): > 100 µM; TGI (ACHN renal): > 100 µM; TGI (SR leukemia): 54.6 µM; TGI (SK-MEL-28 melanoma): > 100 µM; TGI (MDA-MB-231 breast): > 100 µM; TGI (OVCAR-3 ovarian): 77.5 µM; TGI (OVCAR-5 ovarian): > 100 µM; TGI (DU-145 prostate): > 100 µM; TGI (MDA-MB-435): > 100 µM; TGI (MCF7 breast): > 100 µM; TGI (RXF 393 renal): 51.9 µM; TGI (T-47D breast): > 100 µM; TGI (UACC-62 melanoma): > 100 µM; TGI (LOX IMVI melanoma): 34.8 µM; TGI (K-562 leukemia): > 100 µM; TGI (OVCAR-8 ovarian): > 100 µM; TGI (HS 578T breast): > 100 µM; TGI (SN12C renal): > 100 µM; TGI (SF-539 CNS): 44.6 µM; TGI (TK-10 renal): > 100 µM; TGI (SK-OV-3 ovarian): > 100 µM; TGI (786-0 renal): > 100 µM; TGI (BT-549 breast): > 100 µM; TGI (IGROV1 ovarian): > 100 µM; TGI (MOLT-4 leukemia): > 100 µM; TGI (HT29 colon): > 100 µM
